Here are results for nine molecules from paper PMC12567398, “New Assay Systems to Characterize the Broad-Spectrum Antiherpesviral and Non-Herpesviral Activity of Cyclin-Dependent Kinase (CDK) 8 Inhibitors” (Pharmaceuticals, 2025).

Each structure is given as a SMILES string. Where two headings read alike, the source gives them in different places.

Data set [1] is described as follows: in vitro. To be noted: mouse.
The next data set concerns MHV-68-Luc. In words: MHV-68-Luc luciferase reporter assay. The data set is classed as cell-based, murine herpesvirus 68. The note with it: Murine herpesvirus. (Reporter assays use an easily measured gene product as a stand-in for the process of interest.)
The nature of data set [2]: in vitro. To be noted: African green monkey.
A short description of data set [3]: in vitro. To be noted: human, CC50.
Data set [4] is described as follows: in vitro. To be noted: human.
Data set [5] concerns Epstein–Barr virus P3HR-1. In words: EBV lytic assay in TPA-induced P3HR-1 cells, qPCR. The data set is classed as cell-based.
A short description of data set [6]: Neutral Red uptake cell viability assay, COS-7. To be noted: African green monkey.
The test system of a further data set is EHV-1-GFP. In words: EHV-1-GFP antiviral assay, GFP fluorometry. The format is cell-based, equine herpesvirus 1.
Data set [7] in a line: Neutral Red uptake / Alamar Blue cell viability assay, 293T. To be noted: human.
Data set [8] can be described thus: Neutral Red uptake cell viability assay, Vero. The note with it: African green monkey.
A short description of data set [9]: Neutral Red uptake cell viability assay, MEF. To be noted: mouse.
Data set [10] can be described thus: Neutral Red uptake cell viability assay, HFF. To be noted: human.
For another data set, the system named is HHV-6A-GFP. Nature of the data set: HHV-6A plaque reduction assay in HFFs. To be noted: read-out: Antiviral mean EC50 based on plaque assay measurements. (In general: In a plaque reduction assay, fewer plaques than in the control indicate reduced infectivity or spread.)
Another data set has as its system vaccinia virus VV IHD-5. In words: microbe, parasite or virus in culture. The format is cell-based.
The subject of another data set is RCMV. On the set-up: method as in ref 35, 38 (a number printed in a supplementary file, which may have a reference list of its own: not looked up in the article's list). The note with it: Table S1; read-out: antiviral EC50, RCMV; cited from earlier work.
In the next data set the test system is KSHV. Further details: method as in ref 35, 38 (a number printed in a supplementary file, which may have a reference list of its own: not looked up in the article's list). The note with it: Table S1; read-out: antiviral EC50, KSHV; cited from earlier work.
A further data set deals with HHV-6A. On the set-up: method as in ref 35 (a number printed in a supplementary file, which may have a reference list of its own: not looked up in the article's list). The note with it: Table S1; J-Jhan cells; read-out: antiviral EC50, HHV-6A (J-Jhan); cited from earlier work.
A further data set concerns HAdV. On the set-up: method as in ref 35, 38 (a number printed in a supplementary file, which may have a reference list of its own: not looked up in the article's list). The note with it: Table S1; read-out: antiviral EC50, HAdV; cited from earlier work.
The next data set concerns EHV-1. In words: EHV-1-specific qPCR of virus release into culture medium. The format is cell-based, equine herpesvirus 1. To be noted: EHV-1, read-out: EC50.
Another data set concerns HCMV. On the set-up: method as in ref 35, 38 (a number printed in a supplementary file, which may have a reference list of its own: not looked up in the article's list). To be noted: Table S1; read-out: antiviral EC50, HCMV; cited from earlier work.
Another data set concerns RhCMV. On the set-up: method as in ref 35, 38 (a number printed in a supplementary file, which may have a reference list of its own: not looked up in the article's list). The note with it: Table S1; read-out: antiviral EC50, RhCMV; cited from earlier work.
The subject of another data set is ChCMV. Further details: method as in ref 35, 38 (a number printed in a supplementary file, which may have a reference list of its own: not looked up in the article's list). The note with it: Table S1; read-out: antiviral EC50, ChCMV; cited from earlier work.
In another data set the test system is MCMV. On the set-up: method as in ref 35, 38 (a number printed in a supplementary file, which may have a reference list of its own: not looked up in the article's list). The note with it: Table S1; read-out: antiviral EC50, MCMV; cited from earlier work.
The subject of the next data set is VZV. On the set-up: method as in ref 35, 38 (a number printed in a supplementary file, which may have a reference list of its own: not looked up in the article's list). To be noted: Table S1; read-out: antiviral EC50, VZV; cited from earlier work.
A further data set deals with GPCMV. On the set-up: method as in ref 35, 38 (a number printed in a supplementary file, which may have a reference list of its own: not looked up in the article's list). To be noted: Table S1; read-out: antiviral EC50, GPCMV; cited from earlier work.
For another data set, the system named is HSV-1. On the set-up: method as in ref 35, 38 (a number printed in a supplementary file, which may have a reference list of its own: not looked up in the article's list). The note with it: Table S1; read-out: antiviral EC50, HSV-1; cited from earlier work.
[11] abbreviates: human gammaherpesvirus 4, 240 h, EBV, TPA-induced P3HR-1, 10 d, read-out: Antiviral mean EC50 based on qPCR measurements.
The mark [12] stands for this setting: CC50, COS-7, listed with GFP / COS-7 (Fig 1E).
The mark [13] stands for this setting: CC50, Vero, reference compounds (Fig 1E).
Where [14] appears, read: mean CC50, HFF, HHV-6A assay conditions (Fig 2D).
Setting [15] is: Orthopoxvirus vaccinia, 48 h, read-out: Antiviral mean EC50 based on luciferase measurements.

By EC50 is commonly meant the concentration needed to bring the measured effect to its halfway point. Regarding `Nc1nc2c(ncn2COCCO)c(=O)[nH]1` [ACV, aciclovir], the CC50 at 7 d in the data set “in vitro [1]” and in the data set “in vitro [2]” was more than 100 µM throughout. Also, the EC50 in the data set with MHV-68-Luc (MHV-68-Luc, HFF) is more than 5 µM; in the data set on MHV-68-Luc (MHV-68-Luc, MEF), 22.2 ± 5.5 µM; with MHV-68-Luc (Vero, MHV-68-Luc), 0.3 ± 0.3 µM. The molecule also yielded a CC50 in the data set “in vitro [3]” of more than 100 µM.

The molecule `CC(C)(C)C(=O)OCOP(=O)(COCCn1cnc2c(N)ncnc21)OCOC(=O)C(C)(C)C` [ADV, adefovir dipivoxil] displayed a CC50 at 10 d in the data set “in vitro [4]” of 93 µM. Further, the concentration giving a half-maximal response (EC50) in data set [5] (setting [11]) stood at 1.7 ± 0.2 µM.

For `Nc1ncnc2c1ncn2CCOCP(=O)(O)O` [AFV, adefovir], the CC50 in the data set “in vitro [4]” is more than 100 µM. Moreover, in [5] (setting [11]), the concentration for a half-maximal effect (EC50) is 13 ± 5 µM.

Regarding `CCCCCCCCCCCCCCCCOCCCOP(=O)(O)CO[C@H](CO)Cn1ccc(N)nc1=O` [BCV, brincidofovir], the CC50 at 4 d in data set [6] (CC50, COS-7 (Fig 4F)) was more than 10 µM; in data set [6] (setting [12]), 9.8 ± 1.9 µM. Further, the concentration for a half-maximal effect (EC50) in the data set with MHV-68-Luc (COS-7, MHV-68-Luc, COS-7) was 0.2 ± 0.04 µM; with MHV-68-Luc (MHV-68-Luc, HFF), more than 0.5 µM; in the data set on MHV-68-Luc (MHV-68-Luc, MEF), 0.1 ± 0.07 µM; in the data set with MHV-68-Luc (Vero, MHV-68-Luc), 0.01 ± 0.003 µM; in the data set on EHV-1-GFP, 0.03 ± 0.01 µM; with EHV-1-GFP (COS-7), 0.04 ± 0.003 µM. The EC50 amounted to 0.002 ± 0.003 µM in the data set on EHV-1-GFP (Equus caballus, Vero); 0.002 ± 0.001 µM in the data set with HHV-6A-GFP (Human betaherpesvirus 6A); 1.9 ± 0.4 µM in the data set on vaccinia virus VV IHD-5 (setting [15]). This molecule came in with a CC50 at 2 d in [7] of more than 10 µM. Further, the CC50 at 7 d in data set [8] (CC50, Vero (Fig 4F)) was more than 10 µM; in data set [8] (setting [13]), 1.3 ± 1.4 µM; in data set [9], more than 10 µM. Besides, the CC50 was 19 ± 3 µM in data set [10] (CC50, HFF, reference compounds (Fig 1E)) and more than 10 µM in data set [10] (setting [14]).

As to `Nc1ccn(C[C@@H](CO)OCP(=O)(O)O)c(=O)n1` [CDV, cidofovir], the CC50 at 4 d in [6] (setting [12]) amounted to 85.6 ± 6.6 µM. The EC50 in the data set on EHV-1-GFP (COS-7) is 3.2 ± 3.8 µM; in the data set on EHV-1-GFP (Equus caballus, Vero) it was 4.5 ± 2.4 µM; in the data set on HHV-6A-GFP (Human betaherpesvirus 6A), 0.4 ± 0.1 µM. The molecule further had a CC50 at 7 d in [8] (setting [13]) of more than 100 µM. The same molecule returned a CC50 in data set [10] (setting [14]) of more than 100 µM.

For the molecule `O=C(O)P(=O)(O)O` [FOS, foscarnet], the EC50 in the data set on MHV-68-Luc (MHV-68-Luc, HFF) was more than 500 µM; in the data set on MHV-68-Luc (MHV-68-Luc, MEF) it was 41.5 ± 17.5 µM; in the data set on MHV-68-Luc (Vero, MHV-68-Luc) it was 36.4 ± 10.8 µM. Also, the CC50 at 7 d in data set [8] (CC50, Vero (Fig 4F)) is more than 1000 µM; in [9], more than 1000 µM. In data set [10] (CC50, HFF (Fig 4F)), this molecule registered a CC50 of more than 1000 µM.

As for `COc1cccc(N2CCN(C3=Nc4c(F)cccc4[C@H](CC(=O)O)N3c3cc(C(F)(F)F)ccc3OC)CC2)c1` [LMV, letermovir], the EC50 is more than 50 µM with MHV-68-Luc (MHV-68-Luc, HFF); more than 50 µM in the data set with MHV-68-Luc (MHV-68-Luc, MEF); 44 ± 3.2 µM with MHV-68-Luc (Vero, MHV-68-Luc); more than 50 µM in the data set with vaccinia virus VV IHD-5 (setting [15]).

`CC(C)Nc1nc2cc(Cl)c(Cl)cc2n1[C@H]1O[C@@H](CO)[C@H](O)[C@@H]1O` [MBV, maribavir] yielded a CC50 at 4 d in [6] (CC50, COS-7 (Fig 4F)) of more than 100 µM. The EC50 with MHV-68-Luc (COS-7, MHV-68-Luc, COS-7) is more than 50 µM; with MHV-68-Luc (MHV-68-Luc, HFF), 269 ± 55.5 µM; in the data set with MHV-68-Luc (MHV-68-Luc, MEF), 59.6 ± 2.2 µM; in the data set on MHV-68-Luc (Vero, MHV-68-Luc) it was 88.9 ± 13.6 µM. The CC50 at 7 d in data set [8] (CC50, Vero (Fig 4F)) is more than 1000 µM; in [9], 179 ± 10 µM. In data set [10] (CC50, HFF (Fig 4F)), this molecule showed a CC50 of 163 ± 9 µM.

As for `Cc1n[nH]c2ncc(C(=O)N3CCC[C@H]3c3ccc(Cl)cc3)cc12` [MSC-2530818], the CC50 with Caco-2 cells, in the data set with 293T-tdTom-Luc cells, with MEFs, in the data set on P3HR-1 cells and with Vero cells was more than 100 µM throughout. In addition, the EC50 in the data set on RCMV is 0.003 ± 0.008 µM; in the data set with KSHV, more than 40 µM; in the data set on HHV-6A it was more than 50 µM; in the data set on HAdV, 0.3 ± 0.3 µM; in the data set with EHV-1 (qPCR / COS-7), 0.7 ± 0.9 µM; in the data set on EHV-1 (qPCR / HFF), 0.08 ± 0.2 µM. Moreover, the half-maximal effective concentration (EC50) in the data set on HCMV is 0.001 ± 0.0007 µM; in the data set with RhCMV it was 0.002 ± 0.001 µM; with ChCMV it was 0.02 ± 0.03 µM; in the data set on MCMV, 0.02 ± 0.02 µM; in the data set with SARS-CoV-2 d6-YFP (read-out: Antiviral mean EC50 based on YFP measurements, SARS-CoV-2 d6-YFP, Caco-2, […]), not below 15.4 µM; with SARS-CoV-2 d6-YFP (read-out: antiviral EC50, SARS-CoV-2, Table S1), 15.4 ± 6.4 µM. For the same molecule, the EC50 in data set [5] (Table S1, read-out: antiviral EC50, EBV) was 1.4 ± 0.6 µM; in the data set with HHV-6A-GFP (HHV-6A, HFF) it was 0.2 ± 0.4 µM; with vaccinia virus VV IHD-5 (read-out: antiviral EC50, VV), more than 50 µM; with VZV, more than 50 µM; in the data set with GPCMV, 0.03 ± 0.05 µM; with HSV-1 it was 42.3 ± 4.9 µM. For the same molecule, in the data set on SARS-CoV-2 d6-YFP (in words), the “CDK8 inhibitor sensitivity of SARS-CoV-2 in Caco-2 cells” value is “low level of sensitivity”.
